Test results: patent US20150045391A1, “FILANESIB COMBINED WITH POMALIDOMIDE DISPLAYS ENHANCED ANTI-TUMOR ACTIVITY” (Array BioPharma Inc., priority 2013, published 2015)

Tests used:
[1] = Plasma exposure after a single IP dose of filanesib and/or pomalidomide (Example 1); type: in vivo; details: mouse, male CD-1 mice
Method: Naïve male CD-1 mice were administered a single intraperitoneal (“IP”) bolus dose of filanesib (12.5 mg/kg) and/or pomalidomide (10 mg/kg). Blood was collected at 4, 8, 12, 16, 20 and 24 hours via cardiac puncture, ethylenediaminetetraacetic acid (“EDTA”) plasma was prepared, and concentration of plasma analytes were measured.

[2] = test system: RPMI-8226 xenografts; assay: RPMI-8226 xenograft tumor growth inhibition (Example 2); type: in vivo, mice; details: for % Complete Response / % Max Body Weight Loss: RPMI-8226, filanesib 12.5 mg/kg IP days 1 and 2, pomalidomide 10 mg/kg IP QD days 1-21; for % Complete Response: SCID-beige mice, no palpable tumor for 2 consecutive measurements; for cure rate: RPMI-8226 model, filanesib 12.5 mg/kg IP D1, 2, pomalidomide 10 mg/kg IP QD, cure = no palpable tumor 100 days from study initiation
Method: (§1) Female SCID-beige mice were inoculated subcutaneously with 10×10^6 H929 (FIG. 2), RPMI-8226 (FIG. 3) or JJN3 (FIG. 4) tumor cells in 50% 1× phosphate buffered saline (“PBS”) 50% Matrigel™ (100 μL). […] Tumor size and animal body weight were measured on the days indicated in FIGS. 2-4 over the course of each study. Tumor volume was calculated using the formula, volume=[…]. Percent complete response indicates an animal has no palapable tumor for 2 consecutive measurements.

[3] = test system: JJN3 xenografts; assay: JJN3 xenograft tumor growth inhibition (Example 2); type: in vivo, mice; details: for % Complete Response: SCID-beige mice, filanesib 12.5 mg/kg IP days 1 and 2, pomalidomide 10 mg/kg IP QD days 1-19, no palpable tumor for 2 consecutive measurements; for % Max Body Weight Loss: filanesib 12.5 mg/kg IP days 1 and 2, pomalidomide 10 mg/kg IP QD days 1-19
Method: as §1

[4] = test system: H929 xenografts; assay: H929 xenograft tumor growth inhibition (Example 2); type: in vivo, mice; details: for % Complete Response: SCID-beige mice, filanesib 12.5 mg/kg IP days 1 and 2, pomalidomide 10 mg/kg IP QD days 1-21, no palpable tumor for 2 consecutive measurements; for % Max Body Weight Loss: filanesib 12.5 mg/kg IP days 1 and 2, pomalidomide 10 mg/kg IP QD days 1-21
Method: as §1

[5] = Hematology profiles and body weight in naive CD-1 mice (Example 3); type: in vivo; details: for neutropenia / neutrophil loss, in words: hematology analysis in mice
Method: Naïve male CD-1 mice were administered saline vehicle (10 mL/kg, IP, days 1 and 2), filanesib (12.5 mg/kg, IP, days 1 and 2) and/or pomalidomide (1 or 10 mg/kg, IP, QD, days 1-14). Hematology parameters (platelets FIG. 5, lymphocytes FIG. 6, neutrophils FIG. 7) were measured on days 5 and 12, and animal body weight (FIG. 8) was measured on days 1, 3, 5, 8, 10 and 12. For hematology analysis, blood was collected 12 hours following the final dose via cardiac puncture, […] was prepared, and hematology profiles were measured on Hemavet 950FS analyzer.

[6] = test system: RPMI-8226 xenografts; assay: RPMI-8226 dose ranging xenograft (Example 4); type: in vivo, mice; details: for % Cure Rate: no palpable tumor 158 days from study start
Method: Female SCID-Beige mice were inoculated subcutaneously with 10×10^6 RPMI-8226 tumor cells in 50% 1×PBS 50% Matrigel™ (100 μL). […] Tumor size and animal body weight were measured on the indicated days over the course of each study. Tumor volume was calculated using the formula, volume=[…]. Percent cure rate indicates an animal has no palpable tumor 158 days from study start.

[7] = Predicted in vitro IC50 of filanesib
[8] = Dose limiting toxicity of filanesib; details: in vivo
[9] = filanesib in plasma, single IP bolus filanesib 12.5 mg/kg alone or with pomalidomide 10 mg/kg
[10] = Day 5, filanesib 12.5 mg/kg IP days 1 and 2 and/or pomalidomide 1 mg/kg IP QD days 1-14
[11] = Day 12, filanesib 12.5 mg/kg IP days 1 and 2 and/or pomalidomide 1 mg/kg IP QD days 1-14
[12] = filanesib 12.5 mg/kg IP days 1 and 2 and/or pomalidomide 1 mg/kg IP QD days 1-14
[13] = filanesib 7.5 mg/kg IP days 1 and 2 and/or pomalidomide 5 mg/kg IP QD days 1-21
[14] = filanesib 12.5 mg/kg IP days 1 and 2 and/or pomalidomide 10 mg/kg IP QD days 1-21
[15] = pomalidomide in plasma, single IP bolus pomalidomide 10 mg/kg alone or with filanesib 12.5 mg/kg
[16] = Day 5, pomalidomide 10 mg/kg IP QD days 1-14, alone or with filanesib 12.5 mg/kg IP days 1 and 2
[17] = Day 12, pomalidomide 10 mg/kg IP QD days 1-14, alone or with filanesib 12.5 mg/kg IP days 1 and 2

Structure (SMILES) | % Complete Response [2] [%] | % Max Body Weight Loss [2] [%] | cure rate [2] [%] | % Complete Response [3] [%] | % Max Body Weight Loss [3] [%] | % Complete Response [4] [%] | % Max Body Weight Loss [4] [%] | % Decrease in Cell Counts from Vehicle, Lymphocytes [5, 10] [%] | % Decrease in Cell Counts from Vehicle, Neutrophils [5, 10] [%] | % Decrease in Cell Counts from Vehicle, Platelets [5, 10] [%] | % Decrease in Cell Counts from Vehicle, Lymphocytes [5, 11] [%] | % Decrease in Cell Counts from Vehicle, Neutrophils [5, 11] [%] | % Decrease in Cell Counts from Vehicle, Platelets [5, 11] [%] | % Max Body Weight Loss [5, 12] [%] | neutropenia / neutrophil loss, in words [5] | % Max Body Weight Loss [6, 13] [%] | % Cure Rate [6, 13] [%] | % Max Body Weight Loss [6, 14] [%] | % Cure Rate [6, 14] [%] | further results
CON(C)C(=O)N1N=C(c2cc(F)ccc2F)S[C@@]1(CCCN)c1ccccc1.Cl [filanesib, (S)-2-(3-aminopropyl)-5-(2,5-difluorophenyl)-N-methoxy-N-methyl-2-phenyl-1,3,4-thiadiazole-3(2H)-carboxamide hydrochloride] | 50 | 5.3 | 0 | 0 | 6.6 | 0 | 8.9 | 34 | 69 | 9 | 0 | 0 | 0 | 0 | caused neutropenia | 3.7 | 0 | 8.0 | 0 | AUC(0-t) [1, 9]: 3090 ng·h/mL; Cmax [1, 9]: 1660 ng/mL; Tmax [1, 9]: 4.98 min; predicted in vitro IC50 [7]: about 0.2 ng/mL; major dose limiting toxicity (DLT) [8]: neutropenia
Nc1cccc2c1C(=O)N(C1CCC(=O)NC1=O)C2=O (centres unmarked) [pomalidomide] | 12.5 | 0.9 | 0 | 0 | 0 | 28.5 | 4.4 | 9 | 27 | 8 | 0 | 0 | 0 | 0 | caused neutropenia | 0.5 | 0 | 1.4 | 0 | AUC(0-t) [1, 15]: 3080 ng·h/mL; Cmax [1, 15]: 956 ng/mL; Tmax [1, 15]: 4.98 min; % Decrease in Cell Counts from Vehicle, Lymphocytes [5, 16]: 4%; % Decrease in Cell Counts from Vehicle, Neutrophils [5, 16]: 21%; % Decrease in Cell Counts from Vehicle, Platelets [5, 16]: 10%; % Decrease in Cell Counts from Vehicle, Lymphocytes [5, 17]: 0%; % Decrease in Cell Counts from Vehicle, Neutrophils [5, 17]: 0%; % Decrease in Cell Counts from Vehicle, Platelets [5, 17]: 0%; % Max Body Weight Loss ([5]; pomalidomide 10 mg/kg IP QD days 1-14, alone or with filanesib 12.5 mg/kg IP days 1 and 2): 0%
